Experimental data from patent publication US20080009418A1, “Selective Inhibitors” (Alchemia LTD., priority 2004, published 2008).

How the values were obtained:
Human δ-opioid (DOP) = target: T1, Human δ-opioid (DOP) (Homo sapiens, UniProt P41143); test: Radioligand binding, human δ-opioid (DOP) membranes, FlashPlate, [3H]-Bremazocine; conditions: compound at 10 μM, [3H]-Bremazocine
T1 construct: purchased Perkin Elmer Biosignal
In short: (§1)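 Cloned human receptor membranes were coated onto FlashPlate wells and incubated with radioligand and compound (added from a 0.5 mM DMSO daughter plate) for 1 hour at room temperature in the dark. Scintillation counting gave percent inhibition, with DMSO defining total and reference ligand defining non-specific binding.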

Human κ-Opioid (KOP) = target: T2, Human κ-Opioid (KOP) (Homo sapiens, UniProt P41145); test: Radioligand binding, human κ-opioid (KOP) membranes, filtration, [3H]-Diprenorphine; conditions: compound at 10 μM, [3H]-Diprenorphine
T2 construct: purchased Perkin Elmer Biosignal
T2 sequence (P41145 whole entry): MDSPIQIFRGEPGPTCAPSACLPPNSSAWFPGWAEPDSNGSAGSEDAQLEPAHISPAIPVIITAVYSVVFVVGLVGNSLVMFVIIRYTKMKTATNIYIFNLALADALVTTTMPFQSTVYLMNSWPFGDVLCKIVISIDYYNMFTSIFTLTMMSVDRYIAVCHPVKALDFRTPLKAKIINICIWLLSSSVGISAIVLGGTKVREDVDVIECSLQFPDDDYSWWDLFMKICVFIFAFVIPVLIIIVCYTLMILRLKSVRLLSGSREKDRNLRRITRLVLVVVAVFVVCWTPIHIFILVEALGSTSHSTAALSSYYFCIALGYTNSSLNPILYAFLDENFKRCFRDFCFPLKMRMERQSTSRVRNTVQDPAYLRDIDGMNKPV
In short: (§2)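 Membranes from cloned human receptors were incubated with compound and radioligand for 1 hour at room temperature. Bound ligand was collected on 0.3% PEI-soaked filters, washed with cold 50 mM Tris-HCl pH 7.4, and counted by scintillation. Percent inhibition was computed against DMSO totals and reference-ligand nonspecific wells.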

Human Melanocortin (MC3) = target: T3, Human Melanocortin (MC3) (Homo sapiens, UniProt P41968); test: Radioligand binding, human melanocortin MC3 membranes, FlashPlate, [125I]-NDP-αMSH; conditions: compound at 10 μM, [125I]-NDP-αMSH
T3 construct: purchased Perkin Elmer Biosignal
T3 sequence (P41968 whole entry): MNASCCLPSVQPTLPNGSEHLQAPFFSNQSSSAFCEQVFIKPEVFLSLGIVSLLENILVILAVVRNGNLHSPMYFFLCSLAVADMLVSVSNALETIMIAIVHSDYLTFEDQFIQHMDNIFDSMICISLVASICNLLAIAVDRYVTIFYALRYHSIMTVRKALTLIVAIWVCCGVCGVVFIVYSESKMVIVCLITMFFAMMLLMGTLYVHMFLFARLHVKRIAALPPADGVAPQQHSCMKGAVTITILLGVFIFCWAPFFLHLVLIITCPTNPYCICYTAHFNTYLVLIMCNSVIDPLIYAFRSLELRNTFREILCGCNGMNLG
In short: as §1

Human Melanocortin (MC4) = target: T4, Human Melanocortin (MC4) (Homo sapiens, UniProt P32245); test: Radioligand binding, human melanocortin MC4 membranes, FlashPlate, [125I]-NDP-αMSH; conditions: compound at 10 μM, [125I]-NDP-αMSH
T4 construct: purchased Perkin Elmer Biosignal
T4 sequence (P32245 whole entry): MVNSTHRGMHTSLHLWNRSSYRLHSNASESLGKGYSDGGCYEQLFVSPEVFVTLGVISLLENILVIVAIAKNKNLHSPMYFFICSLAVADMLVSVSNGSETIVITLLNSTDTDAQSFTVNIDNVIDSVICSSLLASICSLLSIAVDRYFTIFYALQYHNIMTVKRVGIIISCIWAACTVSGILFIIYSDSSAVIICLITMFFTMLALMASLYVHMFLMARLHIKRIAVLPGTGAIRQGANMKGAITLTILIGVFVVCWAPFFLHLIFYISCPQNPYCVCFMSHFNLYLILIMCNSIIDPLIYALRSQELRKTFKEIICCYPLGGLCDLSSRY
In short: as §1

Human melanocortin (MC5) = target: T5, Human melanocortin (MC5) (Homo sapiens, UniProt P33032); test: Radioligand binding, human melanocortin MC5 membranes, FlashPlate, [125I]-NDP-αMSH; conditions: compound at 10 μM, [125I]-NDP-αMSH
T5 construct: purchased Perkin Elmer Biosignal
T5 sequence (P33032 whole entry): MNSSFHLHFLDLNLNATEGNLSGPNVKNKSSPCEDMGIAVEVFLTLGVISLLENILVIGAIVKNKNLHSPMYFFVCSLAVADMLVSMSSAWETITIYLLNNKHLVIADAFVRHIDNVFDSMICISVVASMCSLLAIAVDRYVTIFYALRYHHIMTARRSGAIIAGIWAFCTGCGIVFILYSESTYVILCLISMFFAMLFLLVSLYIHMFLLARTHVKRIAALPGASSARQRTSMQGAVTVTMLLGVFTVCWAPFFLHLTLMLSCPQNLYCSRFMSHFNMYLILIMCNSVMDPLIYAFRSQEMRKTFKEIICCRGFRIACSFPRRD
In short: as §1

[1] = target: T6, Human melanin-concentrating hormone (MCH1) (Homo sapiens, UniProt Q99705); test: Radioligand binding, human melanin-concentrating hormone MCH1 membranes, FlashPlate, [125I]-S36057; conditions: compound at 10 μM; for A6: inhibition of radioligand binding, human melanin-concentrating hormone (MCH1): [125I]-S36057
T6 construct: purchased Perkin Elmer Biosignal
T6 sequence (Q99705 whole entry): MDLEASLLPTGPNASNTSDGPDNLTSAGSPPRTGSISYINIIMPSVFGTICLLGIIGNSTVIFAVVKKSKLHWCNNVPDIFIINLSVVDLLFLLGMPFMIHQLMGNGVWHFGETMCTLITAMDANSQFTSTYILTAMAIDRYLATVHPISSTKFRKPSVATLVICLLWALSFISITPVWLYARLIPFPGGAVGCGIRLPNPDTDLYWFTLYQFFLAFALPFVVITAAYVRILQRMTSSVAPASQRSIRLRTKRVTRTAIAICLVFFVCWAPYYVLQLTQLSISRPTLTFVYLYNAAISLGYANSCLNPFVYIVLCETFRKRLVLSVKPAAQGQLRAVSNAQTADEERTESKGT
In short: as §1

Human μ-opioid (MOP) = target: T7, Human μ-opioid (MOP) (Homo sapiens, UniProt P35372); test: Radioligand binding, human μ-opioid (MOP) membranes, FlashPlate, [3H]-Naloxone; conditions: compound at 10 μM, [3H]-Naloxone
T7 construct: purchased Perkin Elmer Biosignal
T7 sequence (P35372 whole entry): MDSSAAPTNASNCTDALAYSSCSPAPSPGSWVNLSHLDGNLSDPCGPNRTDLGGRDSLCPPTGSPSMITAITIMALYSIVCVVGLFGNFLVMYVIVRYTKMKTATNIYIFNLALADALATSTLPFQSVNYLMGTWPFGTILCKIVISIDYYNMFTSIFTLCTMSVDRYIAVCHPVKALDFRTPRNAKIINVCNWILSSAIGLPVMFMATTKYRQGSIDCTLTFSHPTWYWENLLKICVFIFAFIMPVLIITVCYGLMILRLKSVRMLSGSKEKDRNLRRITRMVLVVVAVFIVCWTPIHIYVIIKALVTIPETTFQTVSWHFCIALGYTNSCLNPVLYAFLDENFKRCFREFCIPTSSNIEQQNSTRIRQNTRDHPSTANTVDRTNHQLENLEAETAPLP
In short: as §1

Human neurokinin (NK1) = target: T8, Human neurokinin (NK1) (Homo sapiens, UniProt P25103); test: Radioligand binding, human neurokinin NK1 membranes, filtration, [125I]-Substance P; conditions: compound at 10 μM, [125I]-Substance P
T8 construct: purchased Perkin Elmer Biosignal
T8 sequence (P25103 whole entry): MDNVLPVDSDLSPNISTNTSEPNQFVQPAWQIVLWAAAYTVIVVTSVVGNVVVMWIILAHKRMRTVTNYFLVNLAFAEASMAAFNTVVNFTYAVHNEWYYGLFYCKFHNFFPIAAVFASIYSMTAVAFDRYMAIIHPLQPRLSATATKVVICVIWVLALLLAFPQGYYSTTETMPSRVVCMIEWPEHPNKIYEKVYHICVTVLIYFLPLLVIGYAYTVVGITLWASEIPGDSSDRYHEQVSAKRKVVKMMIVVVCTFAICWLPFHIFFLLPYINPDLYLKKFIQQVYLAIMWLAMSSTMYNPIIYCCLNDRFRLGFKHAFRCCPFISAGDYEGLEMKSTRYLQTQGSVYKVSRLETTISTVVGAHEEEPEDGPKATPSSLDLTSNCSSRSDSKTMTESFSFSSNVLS
In short: as §2

[2] = target: T9, Human neuropeptide Y (NPY-Y1) (Homo sapiens, UniProt P25929); test: Radioligand binding, human neuropeptide Y NPY-Y1 membranes, FlashPlate, [125I]-PYY; conditions: compound at 10 μM, [125I]-PYY
T9 construct: purchased Perkin Elmer Biosignal
T9 sequence (P25929 1-384): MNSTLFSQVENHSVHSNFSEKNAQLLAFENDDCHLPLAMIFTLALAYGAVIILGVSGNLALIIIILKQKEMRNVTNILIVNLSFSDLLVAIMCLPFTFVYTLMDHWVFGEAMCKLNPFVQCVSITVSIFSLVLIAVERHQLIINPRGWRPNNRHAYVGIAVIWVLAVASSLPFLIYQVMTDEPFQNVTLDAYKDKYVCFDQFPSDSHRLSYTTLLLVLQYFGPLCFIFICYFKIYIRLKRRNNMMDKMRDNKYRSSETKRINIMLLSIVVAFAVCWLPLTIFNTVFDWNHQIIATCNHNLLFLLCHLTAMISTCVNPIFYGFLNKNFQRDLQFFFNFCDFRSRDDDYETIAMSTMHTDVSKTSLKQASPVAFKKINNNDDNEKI
In short: as §1

Human opioid (ORL1) = target: T10, Human opioid (ORL1) (Homo sapiens, UniProt P41146); test: Radioligand binding, human opioid ORL1 membranes, FlashPlate, [125I]-Nociceptin; conditions: compound at 10 μM, [125I]-Nociceptin
T10 construct: purchased Perkin Elmer Biosignal
T10 sequence (P41146 whole entry): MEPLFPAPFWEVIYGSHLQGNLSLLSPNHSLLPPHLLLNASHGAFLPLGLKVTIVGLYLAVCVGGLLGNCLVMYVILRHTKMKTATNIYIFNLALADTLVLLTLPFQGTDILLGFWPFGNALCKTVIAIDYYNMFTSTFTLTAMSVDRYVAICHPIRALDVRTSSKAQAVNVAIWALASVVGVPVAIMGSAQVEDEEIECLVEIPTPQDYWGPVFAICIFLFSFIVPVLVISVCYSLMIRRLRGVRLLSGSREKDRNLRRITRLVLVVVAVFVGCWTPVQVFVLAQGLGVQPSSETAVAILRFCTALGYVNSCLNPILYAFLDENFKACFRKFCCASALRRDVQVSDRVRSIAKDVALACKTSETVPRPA
In short: as §1

Mouse urotensin (mUR2) = target: T11, Mouse urotensin (mUR2) (Mus musculus, UniProt Q8VIH9); test: Radioligand binding, mouse urotensin mUR2 membranes, FlashPlate, [125I]-Urotensin II; conditions: compound at 10 μM, [125I]-Urotensin II
T11 construct: purchased Perkin Elmer Biosignal
T11 sequence (Q8VIH9 1-385): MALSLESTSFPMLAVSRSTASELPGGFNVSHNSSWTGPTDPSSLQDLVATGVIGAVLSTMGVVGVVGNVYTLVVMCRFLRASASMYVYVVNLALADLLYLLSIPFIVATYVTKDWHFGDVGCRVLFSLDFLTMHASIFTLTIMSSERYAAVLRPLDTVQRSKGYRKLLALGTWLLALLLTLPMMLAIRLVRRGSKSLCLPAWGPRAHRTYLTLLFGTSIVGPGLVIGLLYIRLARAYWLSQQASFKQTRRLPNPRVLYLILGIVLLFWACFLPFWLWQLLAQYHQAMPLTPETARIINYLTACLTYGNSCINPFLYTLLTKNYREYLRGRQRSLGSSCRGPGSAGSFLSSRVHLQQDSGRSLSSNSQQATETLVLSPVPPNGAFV
In short: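 Cloned mouse urotensin (mUR2) receptor membranes from Perkin Elmer Biosignal were immobilized in FlashPlate microplates using a proprietary coating. Each well got 19.5 μl buffer, then 0.5 μl of DMSO, reference ligand, or compound. Adding 5 μl of [125I]-Urotensin II, diluted to 5× final concentration in binding buffer, started binding. Plates were sealed with TopSeal-A and incubated 1 hour at room temperature in the dark. Wells were counted for 30 seconds each on a TopCount after a 60-second delay, and percentage inhibition was calculated.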

T1 sequence (P41143 whole entry): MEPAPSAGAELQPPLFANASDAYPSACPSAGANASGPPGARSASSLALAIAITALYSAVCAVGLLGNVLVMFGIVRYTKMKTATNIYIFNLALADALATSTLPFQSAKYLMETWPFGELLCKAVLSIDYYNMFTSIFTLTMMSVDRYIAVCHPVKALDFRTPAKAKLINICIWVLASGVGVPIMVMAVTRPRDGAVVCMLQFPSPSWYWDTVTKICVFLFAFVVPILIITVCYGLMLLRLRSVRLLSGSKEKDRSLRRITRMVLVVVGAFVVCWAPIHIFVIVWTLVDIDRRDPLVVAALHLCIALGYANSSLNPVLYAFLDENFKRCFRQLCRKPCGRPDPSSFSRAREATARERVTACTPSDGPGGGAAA

| SMILES | A1: inhibition of radioligand binding, human δ-opioid (DOP) (Human δ-opioid (DOP)) | A2: inhibition of radioligand binding, human κ-opioid (KOP) (Human κ-Opioid (KOP)) | A3: inhibition of radioligand binding, human melanocortin (MC3) (Human Melanocortin (MC3)) | A4: inhibition of radioligand binding, human melanocortin (MC4) (Human Melanocortin (MC4)) | A5: inhibition of radioligand binding, human melanocortin (MC5) (Human melanocortin (MC5)) | A6: inhibition of radioligand binding, human melanin-concentrating hormone (MCH1) [1] | A7: inhibition of radioligand binding, human μ-opioid (MOP) (Human μ-opioid (MOP)) | A8: inhibition of radioligand binding, human neurokinin (NK1) (Human neurokinin (NK1)) | A9: inhibition of radioligand binding, human neuropeptide Y (NPY-Y1) [2] | A10: inhibition of radioligand binding, human opioid (ORL1) (Human opioid (ORL1)) | A11: inhibition of radioligand binding, mouse urotensin (mUR2) (Mouse urotensin (mUR2)) | A1: inhibition of radioligand binding (Human δ-opioid (DOP); FlashPlate) | A2: inhibition of radioligand binding (Human κ-Opioid (KOP); filtration) | A3: inhibition of radioligand binding (Human Melanocortin (MC3); FlashPlate) | A4: inhibition of radioligand binding (Human Melanocortin (MC4); FlashPlate) | A5: inhibition of radioligand binding (Human melanocortin (MC5); FlashPlate) | A6: inhibition of radioligand binding ([1]; [125I]-S36057, FlashPlate) | A7: inhibition of radioligand binding (Human μ-opioid (MOP); FlashPlate) | A8: inhibition of radioligand binding (Human neurokinin (NK1); filtration) | A9: inhibition of radioligand binding ([2]; FlashPlate) | further results |
| --- | --- | --- | --- | --- | --- | --- | --- | --- | --- | --- | --- | --- | --- | --- | --- | --- | --- | --- | --- | --- | --- |
| NCCC(=O)N[C@H]1C(OCc2ccc3ccccc3c2)O[C@H](COCc2ccc3ccccc3c2)[C@@H](O)[C@@H]1OCc1ccc2ccccc2c1 (stereo partly shown) [compound 443] |  |  |  |  |  |  |  |  |  |  |  |  |  |  |  |  |  |  |  |  | A1: inhibition of radioligand binding (Human δ-opioid (DOP); human DOP membranes): − (“−” indicates less than 50% inhibition at 10 μM); A2: inhibition of radioligand binding (Human κ-Opioid (KOP); human KOP membranes): − (“−” indicates less than 50% inhibition at 10 μM); A3: inhibition of radioligand binding (Human Melanocortin (MC3); human MC3 membranes): + (“+” indicates greater than 50% inhibition at 10 μM); A4: inhibition of radioligand binding (Human Melanocortin (MC4); human MC4 membranes): + (“+” indicates greater than 50% inhibition at 10 μM); A5: inhibition of radioligand binding (Human melanocortin (MC5); human MC5 membranes): + (“+” indicates greater than 50% inhibition at 10 μM); A6: inhibition of radioligand binding ([1]; [125I]-S36057, human MCH1 membranes): + (“+” indicates greater than 50% inhibition at 10 μM); A7: inhibition of radioligand binding (Human μ-opioid (MOP); human MOP membranes): − (“−” indicates less than 50% inhibition at 10 μM); A8: inhibition of radioligand binding (Human neurokinin (NK1); human NK1 membranes): + (“+” indicates greater than 50% inhibition at 10 μM); A9: inhibition of radioligand binding ([2]; human NPY-Y1 membranes): − (“−” indicates less than 50% inhibition at 10 μM); A10: inhibition of radioligand binding (Human opioid (ORL1); human ORL1 membranes): + (“+” indicates greater than 50% inhibition at 10 μM); A11: inhibition of radioligand binding (Mouse urotensin (mUR2); mouse mUR2 membranes): − (“−” indicates less than 50% inhibition at 10 μM) |
| CSC1O[C@H](COCc2ccccc2)[C@@H](O)[C@@H](OCc2ccc(-c3ccccc3)cc2)[C@H]1NC(=O)CCN (stereo partly shown) [compound 285] | − (“−” indicates less than 50% inhibition at 10 μM) | − (“−” indicates less than 50% inhibition at 10 μM) | − (“−” indicates less than 50% inhibition at 10 μM) | − (“−” indicates less than 50% inhibition at 10 μM) | − (“−” indicates less than 50% inhibition at 10 μM) | − (“−” indicates less than 50% inhibition at 10 μM) | − (“−” indicates less than 50% inhibition at 10 μM) | + (“+” indicates greater than 50% inhibition at 10 μM) | − (“−” indicates less than 50% inhibition at 10 μM) | − (“−” indicates less than 50% inhibition at 10 μM) | − (“−” indicates less than 50% inhibition at 10 μM) |  |  |  |  |  |  |  |  |  |  |
| Cc1ccc(CO[C@H]2[C@H](O)[C@@H](CO)OC(NC(=O)CCN)[C@@H]2NC(=O)c2ccccc2)cc1 (stereo partly shown) [compound 357] | − (“−” indicates less than 50% inhibition at 10 μM) | − (“−” indicates less than 50% inhibition at 10 μM) | − (“−” indicates less than 50% inhibition at 10 μM) | − (“−” indicates less than 50% inhibition at 10 μM) | − (“−” indicates less than 50% inhibition at 10 μM) | + (“+” indicates greater than 50% inhibition at 10 μM) | − (“−” indicates less than 50% inhibition at 10 μM) | − (“−” indicates less than 50% inhibition at 10 μM) | − (“−” indicates less than 50% inhibition at 10 μM) | − (“−” indicates less than 50% inhibition at 10 μM) | − (“−” indicates less than 50% inhibition at 10 μM) |  |  |  |  |  |  |  |  |  |  |
| COCC1OC(OCCc2ccccc2)C(NC(=O)CNC(=N)N)C(OCc2ccccc2)C1O (stereo not shown) [compound 215] |  |  |  |  |  |  |  |  |  |  |  | − (“−” indicates less than 50% inhibition at 10 μM) | − (“−” indicates less than 50% inhibition at 10 μM) | − (“−” indicates less than 50% inhibition at 10 μM) | − (“−” indicates less than 50% inhibition at 10 μM) | + (“+” indicates greater than 50% inhibition at 10 μM) | − (“−” indicates less than 50% inhibition at 10 μM) | − (“−” indicates less than 50% inhibition at 10 μM) | + (“+” indicates greater than 50% inhibition at 10 μM) | − (“−” indicates less than 50% inhibition at 10 μM) | A10: inhibition of radioligand binding (Human opioid (ORL1); FlashPlate): − (“−” indicates less than 50% inhibition at 10 μM); A11: inhibition of radioligand binding (Mouse urotensin (mUR2); FlashPlate): − (“−” indicates less than 50% inhibition at 10 μM) |
| COCC1OC(OCc2ccc3ccccc3c2)C(NC(=O)CCN)C(OCc2ccc3ccccc3c2)C1O (stereo not shown) [compound 248] |  |  |  |  |  |  |  |  |  |  |  | − (“−” indicates less than 50% inhibition at 10 μM) | − (“−” indicates less than 50% inhibition at 10 μM) | − (“−” indicates less than 50% inhibition at 10 μM) | − (“−” indicates less than 50% inhibition at 10 μM) | + (“+” indicates greater than 50% inhibition at 10 μM) | − (“−” indicates less than 50% inhibition at 10 μM) | − (“−” indicates less than 50% inhibition at 10 μM) | + (“+” indicates greater than 50% inhibition at 10 μM) | − (“−” indicates less than 50% inhibition at 10 μM) | A10: inhibition of radioligand binding (Human opioid (ORL1); FlashPlate): − (“−” indicates less than 50% inhibition at 10 μM); A11: inhibition of radioligand binding (Mouse urotensin (mUR2); FlashPlate): − (“−” indicates less than 50% inhibition at 10 μM) |
